# Test results reported in publication PMC6370756 (2019).
# How the values were obtained:
# [1] = tested on: SP-PGQ-1 (DNA, G4) GGGCAACTTGGCTGGGGTCTAGTTCCACGGGACGGG; test: ITC; settings: K+ (10 mM potassium phosphate); pH 7.2, 25 °C; two-site fit, high-affinity site; site 1 of 2
# [2] = tested on: SP-PGQ-3 (DNA, G4) GGGCTAATAGGGAGAGCAGGGACGGGG; test: ITC; settings: K+ (10 mM potassium phosphate); pH 7.2, 25 °C; two-site fit, high-affinity site; site 1 of 2
compound,measurement,setting,value
C[n+]1ccc(-c2c3nc(c(-c4cc[n+](C)cc4)c4ccc([nH]4)c(-c4cc[n+](C)cc4)c4nc(c(-c5cc[n+](C)cc5)c5ccc2[nH]5)C=C4)C=C3)cc1,Ka,[1],1.59e+06 M⁻¹
same,Ka,[2],2.49e+07 M⁻¹
